The text below walks through data of ChEMBL document CHEMBL5143593 (Eur J Med Chem, 2022).

The target in series [1] is 5-hydroxytryptamine receptor 2A (Homo sapiens, UniProt P28223). Briefly: Displacement of [3H]-ketanserin from human 5-HT2A receptor expressed in CHO-K1 cells measured after 1.5 hrs by Microbeta plate reader method. The class given is cell-based.
Series [2] has as its target T1, 5-hydroxytryptamine receptor 1A (Homo sapiens, UniProt P08908).
T1 sequence (P08908 whole entry): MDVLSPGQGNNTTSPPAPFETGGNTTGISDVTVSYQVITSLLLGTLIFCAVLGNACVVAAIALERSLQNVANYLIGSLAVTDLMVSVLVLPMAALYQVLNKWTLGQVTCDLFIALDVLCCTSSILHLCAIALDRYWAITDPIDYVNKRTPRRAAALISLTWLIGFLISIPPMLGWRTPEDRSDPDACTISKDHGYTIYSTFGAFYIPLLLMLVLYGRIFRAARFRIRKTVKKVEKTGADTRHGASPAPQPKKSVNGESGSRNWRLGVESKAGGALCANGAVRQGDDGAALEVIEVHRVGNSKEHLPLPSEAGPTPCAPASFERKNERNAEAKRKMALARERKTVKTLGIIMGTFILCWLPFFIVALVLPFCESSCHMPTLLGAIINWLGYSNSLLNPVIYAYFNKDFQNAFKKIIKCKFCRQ
The series can be described thus: Displacement of [3H]-8-OH-DPAT from human 5-HT1A receptor expressed in HEK293 cells measured after 1 hr by Microbeta plate reader method. The class given is cell-based. For orientation: Displacement assays read how much labelled ligand stays bound in the presence of the test substance.

Series [3] deals with 5-hydroxytryptamine receptor 7 (Homo sapiens, UniProt P34969). Briefly: Displacement of [3H]-5-CT from human 5-HT7b receptor expressed in HEK293 cells measured after 1 hr by Microbeta plate reader method. The class given is cell-based.
Series [4] in a line: Permeability of compound at pH 7.4 by PAMPA assay. Background: The PAMPA barrier holds no transporters, so it reflects passive diffusion.
The nature of series [5]: Toxicity in male Wistar rat assessed as maximum tolerated dose administered intraperitoneally. To be noted: in vivo, route ip.
A short description of series [6]: Toxicity in male Wistar rat assessed as abnormalities (breathing changes, low activity, abdominal pain during manipulation, narrowed eyes and provoked vocalization) at 27.8 mg/kg, ip. It counts as organism-based. The following applies: in vivo.
The nature of series [7]: Toxicity in male Wistar rat assessed as abnormalities (low activity and narrowed eyes) at 27.8 mg/kg, ip measured after 24 hrs. The class given is organism-based. To be noted: in vivo.
Series [8] is described as follows: Toxicity in male Wistar rat assessed as abnormalities (breathing changes, low activity and narrowed eyes) at 20 mg/kg, ip measured after 4 hrs. To be noted: in vivo. The class given is organism-based.
Series [9] in a line: Toxicity in male Wistar rat assessed as abnormalities in liver at 20 mg/kg, ip. To be noted: in vivo. The class given is organism-based.
Series [10] is described as follows: Toxicity in male Wistar rat assessed as abnormalities in kidney at 20 mg/kg, ip. It counts as organism-based. To be noted: in vivo.
A short description of series [11]: Toxicity in male Wistar rat assessed as abnormalities in blood plasma at 20 mg/kg, ip. It counts as organism-based. The following applies: in vivo.
The nature of series [12]: Half-life in male Wistar rat brain at 20 mg/kg, ip. The class given is ADME, organism-based.
Series [13] in a line: Tmax in male Wistar rat brain at 20 mg/kg, ip. It counts as ADME, organism-based.
The nature of series [14]: Cmax in male Wistar rat brain at 20 mg/kg, ip. Details: dose 20 mg/kg, route ip. The class given is ADME, organism-based.
The nature of series [15]: AUC in male Wistar rat brain at 20 mg/kg, ip. It counts as ADME, organism-based. Details: dose 20 mg/kg, route ip. The following applies: in vivo.
Series [16] is described as follows: MRT in male Wistar rat brain at 20 mg/kg, ip. It counts as ADME, organism-based.
A short description of series [17]: Half-life in male Wistar rat plasma at 20 mg/kg, ip. The class given is ADME, organism-based.
The nature of series [18]: Tmax in male Wistar rat plasma at 20 mg/kg, ip. It counts as ADME, organism-based.
Series [19] can be described thus: Cmax in male Wistar rat plasma at 20 mg/kg, ip. It counts as ADME, organism-based. Details: dose 20 mg/kg, route ip.
The nature of series [20]: AUC in male Wistar rat plasma at 20 mg/kg, ip. The following applies: in vivo. Further details: dose 20 mg/kg, route ip. The class given is ADME, organism-based.
The nature of series [21]: MRT in male Wistar rat plasma at 20 mg/kg, ip. The class given is ADME, organism-based.

The structures appear in SMILES notation.

Sequence of 5-hydroxytryptamine receptor 2A (P28223 whole entry): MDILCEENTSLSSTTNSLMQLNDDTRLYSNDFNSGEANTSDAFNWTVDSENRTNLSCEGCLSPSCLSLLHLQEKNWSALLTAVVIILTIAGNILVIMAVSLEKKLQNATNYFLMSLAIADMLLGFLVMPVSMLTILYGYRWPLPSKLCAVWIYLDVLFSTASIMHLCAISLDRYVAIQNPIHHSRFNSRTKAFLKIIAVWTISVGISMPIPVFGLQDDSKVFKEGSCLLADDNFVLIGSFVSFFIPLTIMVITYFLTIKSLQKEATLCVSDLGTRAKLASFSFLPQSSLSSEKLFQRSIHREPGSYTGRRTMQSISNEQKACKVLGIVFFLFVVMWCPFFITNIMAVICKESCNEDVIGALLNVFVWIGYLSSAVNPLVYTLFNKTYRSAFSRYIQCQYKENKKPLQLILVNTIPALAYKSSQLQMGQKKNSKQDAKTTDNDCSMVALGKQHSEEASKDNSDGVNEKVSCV
Sequence of 5-hydroxytryptamine receptor 7 (P34969 whole entry, the tested form may be a part): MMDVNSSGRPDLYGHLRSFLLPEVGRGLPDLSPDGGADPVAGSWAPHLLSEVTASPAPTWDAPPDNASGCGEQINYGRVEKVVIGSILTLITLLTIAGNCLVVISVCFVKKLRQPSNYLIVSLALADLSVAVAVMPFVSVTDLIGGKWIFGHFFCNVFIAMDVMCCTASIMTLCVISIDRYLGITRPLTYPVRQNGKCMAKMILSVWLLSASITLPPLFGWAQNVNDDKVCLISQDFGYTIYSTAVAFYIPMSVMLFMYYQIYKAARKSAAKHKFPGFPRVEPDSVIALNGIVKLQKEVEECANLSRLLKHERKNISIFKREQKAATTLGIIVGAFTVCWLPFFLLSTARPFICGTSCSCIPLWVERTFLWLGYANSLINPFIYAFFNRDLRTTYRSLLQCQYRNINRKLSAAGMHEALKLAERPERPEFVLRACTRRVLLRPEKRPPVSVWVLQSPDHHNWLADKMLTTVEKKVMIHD

As to `COc1ccccc1N1CCN(CCCN2CCN(c3ncccc3C#N)CC2)CC1`, the inhibition constant (Ki) in [1] was 23000 nM; in series [2] it was 18 nM; in [3], 2700 nM. Also, the Papp in series [4] turned out to be 20 ×10⁻⁶ cm/s. Further, in [5], the maximum tolerated dose (MTD) worked out at 2.78 mg/kg. For the same compound, the Activity entry is recorded as “Toxic” in series [6]; “Toxic” in series [7]; “Toxic” in [8]; “Non-Toxic” in [9]; “Non-Toxic” in series [10]; “Non-Toxic” in series [11]. The half-life turned out to be 26.7 min in series [12] and 48.8 min in [17]. Moreover, the Tmax in [13] and in [18] was 5 min throughout. Moreover, the results for the highest concentration (Cmax) in [14] and in [19] were 3.52 µM and 3.21 µM, respectively. In addition, the results for the area under the curve (AUC) in [15] and in series [20] were 272930.4 nmol·min/L and 91958.8 nmol·min/L, respectively. Also, the MRT was 57.8 min in [16] and 61.4 min in series [21].

By Ki is commonly meant the dissociation constant of the complex between target and ligand, obtained from inhibition or displacement. Read a high Ki as weaker binding. What is called Papp is a coefficient for how fast a substance crosses the barrier. As a reminder, the MTD is the largest dose that counted as tolerated. In general, half-life refers to the time in which the quantity being followed falls by half. Broadly, the Tmax is the time at which the peak concentration occurs. Usually Cmax stands for the highest concentration seen after dosing. As usually defined, the AUC is concentration integrated over time. A higher AUC goes with high exposure. One may read the MRT as a mean duration of stay, worked out from the concentration-time curve.
